# Values quoted from earlier work in patent US12121499B2, “Pharmaceutical composition comprising the phytocannabinoids cannabidivarin (CBDV) and cannabidiol (CBD)” (priority 2011, dated 2024).
# Where two headings read alike, the source gives them in different places.
# Columns and labels:
# CB1 receptor [1] = molecular target: T1, CB1 receptor (Homo sapiens, UniProt P21554); conditions: WO 2006/054057; Pertwee (2000)
# seizures = conditions: 5 institutionalized children not responding to phenobarbital and phenoytin
# CB1 receptor [2] = molecular target: T1, CB1 receptor; conditions: WO 2007/138322
# grand mal seizures = conditions: 200-300 mg cannabidiol plus regular medication
# seizure frequency = conditions: 900-1200 mg of cannabidiol a day for 10 months; single patient
# [3] = system: seizure frequency in epileptic patients; conditions: 200-300 mg of cannabidiol per day plus standard antiepileptic drugs; 12 epileptic patients
# CB2 receptor = CB2 receptor (Homo sapiens, UniProt P34972); conditions: WO 2007/138322
# Chain of CB2 receptor (P34972 whole entry): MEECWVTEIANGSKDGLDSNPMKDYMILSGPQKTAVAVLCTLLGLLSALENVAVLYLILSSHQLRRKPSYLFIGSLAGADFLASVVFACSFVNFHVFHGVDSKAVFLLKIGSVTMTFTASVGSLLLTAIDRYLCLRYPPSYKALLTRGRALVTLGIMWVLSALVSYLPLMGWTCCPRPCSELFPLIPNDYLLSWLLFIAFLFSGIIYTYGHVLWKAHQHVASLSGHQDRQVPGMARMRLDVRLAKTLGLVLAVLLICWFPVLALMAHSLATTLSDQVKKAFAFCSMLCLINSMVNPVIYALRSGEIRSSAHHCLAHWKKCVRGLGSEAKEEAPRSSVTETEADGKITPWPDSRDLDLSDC
# [4] = rats; WO 2007/138322
# [5] = rats, doses greater than 200 mg/kg
# T1 sequence (P21554 whole entry): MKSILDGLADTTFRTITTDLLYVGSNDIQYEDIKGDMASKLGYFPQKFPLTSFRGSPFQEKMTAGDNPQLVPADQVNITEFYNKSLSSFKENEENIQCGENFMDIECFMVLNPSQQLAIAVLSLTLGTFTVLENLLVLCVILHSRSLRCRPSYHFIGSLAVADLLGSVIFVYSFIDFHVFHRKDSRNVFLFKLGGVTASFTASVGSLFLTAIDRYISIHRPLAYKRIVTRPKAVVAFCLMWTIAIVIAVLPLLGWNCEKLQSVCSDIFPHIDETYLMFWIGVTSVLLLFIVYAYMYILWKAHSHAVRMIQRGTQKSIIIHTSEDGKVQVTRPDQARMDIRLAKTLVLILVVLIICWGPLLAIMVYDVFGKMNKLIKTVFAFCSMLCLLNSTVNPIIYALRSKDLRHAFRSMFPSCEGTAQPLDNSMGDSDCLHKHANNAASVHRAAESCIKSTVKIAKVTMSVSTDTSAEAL
smiles,measurement,setting,value
CCC1(C)CC(=O)NC1=O (stereo not drawn) [ethosuximide],motor and other side effects,[5],notable motor and other side effects (including sedation)
"CCCc1cc(O)c2c(c1)OC(C)(C)[C@@H]1CCC(C)=C[C@@H]21 [THCV, Tetrahydrocannabivarin]",action at the CB1 receptor,CB1 receptor [1],CB1 receptor antagonist
CCCC(CCC)C(=O)O [valproate],motor and other side effects,[5],notable motor and other side effects (including sedation)
"CCCCCc1cc(O)c2c(c1)OC(C)(C)[C@@H]1CCC(C)=C[C@@H]21 [THC, Tetrahydrocannabinol]",seizure outcome,seizures,"One became entirely free of seizures, one became almost completely free of seizures, and the other three did no worse than before"
CCC1(c2ccccc2)C(=O)NC(=O)NC1=O [phenobarbital],motor and other side effects,"rat models of epilepsy, doses greater than 250 mg/kg",notable motor and other side effects (including sedation)
"C=C(C)[C@@H]1CCC(C)=C[C@H]1c1c(O)cc(CCCCC)cc1O [CBD, Cannabidiol]",action at the CB1 receptor,CB1 receptor [2],inverse agonist
same,patients who remained unchanged,grand mal seizures,1
same,patients who showed minor improvement,grand mal seizures,2
same,patients who showed partial improvement,grand mal seizures,2
same,unwanted effect,grand mal seizures,mild sedation
same,patients who showed complete improvement,grand mal seizures; 16 grand mal patients in study,3
same,seizure frequency,seizure frequency,markedly reduced
same,seizure frequency,[3],no significant improvement
same,action at the CB2 receptor,CB2 receptor,inverse agonist
same,bodyweight,[4],reduced bodyweight
